Reference: US6664271B1, “Immunopotentiator agents” (Eli Lilly and Company, priority 1999, dated 2003)

Tested on: chicken leukocytes
Assay: cells
Format: cell-based
Conditions: for minimal effective concentration: Gallus gallus, Leukocyte, read-out: MSC (Minimum Stimulatory Concentration)
Procedure: Various compounds of Formula I were evaluated for in vitro T-lymphocyte blastogenic activity with chicken leukocytes according to the steps described in the following procedure:
(a) Exsanguination step. The leukocytes were obtained from 3-6 week old Hubbard/Peterson broiler chickens. Initially, the chickens were rendered unconscious in a CO2 chamber. The chickens were then exsanguinated via cardiac puncture. In the exsanguination procedure, a syringe was connected to a needle, and the needle was inserted into the area at the base of the neck under the “V” formed by the breast and sternum. After the needle was properly inserted, continuous vacuum was applied to a syringe (connected to the needle) by pulling back on the plunger. It is important to promptly carry out this withdrawal action, because there is only a 10-15 seconds time period after the blood has starting flowing into the syringe before the blood coagulates, and becomes unusable. As soon as the syringe is full (or prior to complete filling if too much time has elapsed such that the blood begins to coagulate), the whole uncoagulated blood is transferred to a tube having the anticoagulant EDTA therein. The tube is then rotated to mix the whole blood and the EDTA. Alternatively, the whole blood can be withdrawn directly into a vacuum container already having EDTA therein, rather than into a syringe.
(b) Leukocyte isolation step. Numerous methods for isolating leukocytes from (uncoagulated) whole blood are known in the art. In a preferred method, the sterile whole blood was combined with methylcellulose (1.5:1). Any blood containing clots was discarded. The mixture was centrifuged at 30×g for ten minutes (300 rpm on Beckman GS-6R centrifuge). The top layer (leukocytes in supernatant) was decanted into a sterile 50 ml conical tube, while taking care to prevent contamination of the sample by red blood cells. The decanted layer was then centrifuged at 200×g for ten minutes (1500 rpm on the Beckman GS-6R centrifuge). The supernatant liquid was discarded, and the resulting cell “pellet” was retained.
The cells were then washed in a solution containing 10 ml PBS (phosphate buffered saline) and Gentamycin (gentamicin sulfate) at a concentration of 50 μg/ml. This solution was centrifuged at 100×g (1000 rpm on the Beckman centrifuge) for five minutes, and the supernatant liquid was discarded. The washing step (including the centrifuging at 100×g) was repeated to ensure complete removal of the methylcellulose. The use of media such as DMEM ([…]) was avoided in the washing steps, since such media may cause agglutination of the white blood cells. Finally, the cells were then suspended in an appropriate media, such as RPMI 1640 tissue cell culture medium, supplemented with phenol red, NaHCO3, and L-Glutamide. Supplemented RPMI 1640 is available from Sigma-Aldrich Chemical Co.
(c) Cell counting and cell viability step. The cells were counted and checked for viability using the Trypan Blue method of exclusion. 0.1 ml of the cell suspension was placed in a 4-5 ml small culture tube along with 0.7 ml HBSS (Hank's Buffered Saline Solution), available from Sigma-Aldrich, and 0.2 ml of a 0.4% solution of aqueous Trypan Blue stain, available from GIBCO BRL, of Grand Island, N.Y. The components were mixed thoroughly but gently, and allowed to sit for 5 minutes (no longer than 15 minutes). The components should not be exposed to the stain for extended periods of time, because such extended exposure may permit viable cells, as well as non-viable cells, to take up dye.
A cover slip was placed on a Bright Line hemacytometer, available from Howser Scientific, and 10 μl of the mixture from the tube was transferred to each chamber. Non-viable cells appear blue under a microscope. The viable cells in one of the 16-square corners of the hemacytometer were then counted. […]

[1] = chicken leukocytes, read at 72 hours
[2] = Hubbard/Peterson broiler, chicken, 72 h

CCOC(=O)[C@H]1CCCN(C(=O)C(C)c2ccccc2)C1 (mixture of isomers) [Example 58, (S)±Ethyl 1-(2-Phenylpropionyl)-3-piperidinecarboxylate]
MSC (Minimum Stimulatory Concentration) [1]: 1 µg/mL

CCOC(=O)C1CCCN(C(=O)c2ccccc2)C1 (stereo not drawn) [Example 1, Ethyl 1-Benzoyl-3-piperidinecarboxylate]
minimal effective concentration [1]: 0.1 µg/mL
MTC (Maximum Tolerable Concentration prior to causing cytotoxicity) [2]: 10 µg/mL

CCOC(=O)C1CCCN(C(=O)c2ccsc2)C1 (stereo not drawn) [Example 2, Ethyl 1-(3-thiophenecarbonyl)-3-piperidinecarboxylate]
minimal effective concentration [1]: 1 µg/mL
MTC (Maximum Tolerable Concentration prior to causing cytotoxicity) [2]: 1 µg/mL

CCOC(=O)C1CN(C(=O)c2ccccc2)CCC1=O (stereo not drawn) [Example 3, Ethyl 1-Benzoyl-4-oxo-3-piperidinecarboxylate]
minimal effective concentration [1]: 0.01 µg/mL
MTC (Maximum Tolerable Concentration prior to causing cytotoxicity) [2]: 1 µg/mL

CCOC(=O)C1CCCN(C(=O)OCc2ccccc2)C1 (stereo not drawn) [Example 4, Ethyl 1-Benzyloxycarbonyl-3-piperidinecarboxylate]
minimal effective concentration [1]: 1 µg/mL
MTC (Maximum Tolerable Concentration prior to causing cytotoxicity) [2]: 10 µg/mL

CCOC(=O)C1CCCN(C(=O)Cc2ccccc2)C1 (stereo not drawn) [Example 6, Ethyl 1-Phenylacetyl-3-piperidinecarboxylate]
MSC (Minimum Stimulatory Concentration) [1]: 0.1 µg/mL
MTC (Maximum Tolerable Concentration prior to causing cytotoxicity) [1]: 1 µg/mL

CCOC(=O)C1CCCN(C(=O)c2ccc(F)cc2)C1 (stereo not drawn) [Example 7, Ethyl 1-(4-Fluorobenzoyl)-3-piperidinecarboxylate]
minimal effective concentration [1]: 0.01 µg/mL
MTC (Maximum Tolerable Concentration prior to causing cytotoxicity) [2]: 10 µg/mL

CCOC(=O)C1CCCN(C(=O)c2cccs2)C1 (stereo not drawn) [Example 8, Ethyl (2-Thiophenecarbonyl)-3-piperidinecarboxylate]
MSC (Minimum Stimulatory Concentration) [1]: 0.1 µg/mL

CCOC(=O)C1CCCN(C(=O)Cc2cccs2)C1 (stereo not drawn) [Example 9, Ethyl 1-(2-thiopheneacetyl)-3-piperidinecarboxylate]
minimal effective concentration [1]: 0.01 µg/mL
MTC (Maximum Tolerable Concentration prior to causing cytotoxicity) [2]: 1 µg/mL

CCOC(=O)C1CN(C(=O)OCc2ccccc2)CCC1=O (stereo not drawn) [Example 10, Ethyl 1-Benzyloxycarbonyl-4-oxo-3-piperidinecarboxylate]
minimal effective concentration [1]: 0.01 µg/mL
MTC (Maximum Tolerable Concentration prior to causing cytotoxicity) [2]: 0.1 µg/mL

CCOC(=O)C1CN(C(=O)c2ccc(F)cc2)CCC1=O (stereo not drawn) [Example 12, Ethyl 1-(4-Fluorobenzoyl)-4-oxo-3-piperidinecarboxylate]
minimal effective concentration [1]: 0.01 µg/mL
MTC (Maximum Tolerable Concentration prior to causing cytotoxicity) [2]: 0.1 µg/mL

CCCCOC(=O)C1CCCN(C(=O)c2ccccc2)C1 (stereo not drawn) [Example 13, n-Butyl 1-Benzoyl-3-piperidinecarboxylate]
minimal effective concentration [1]: 0.01 µg/mL
MTC (Maximum Tolerable Concentration prior to causing cytotoxicity) [2]: 1 µg/mL

CCNC(=O)C1CCCN(C(=O)c2ccccc2)C1 (stereo not drawn) [Example 17, N-Ethyl 1-Benzoyl-3-piperidinecarboxamide]
minimal effective concentration [1]: 1 µg/mL
MTC (Maximum Tolerable Concentration prior to causing cytotoxicity) [2]: 10 µg/mL

CCCCCCCCNC(=O)C1CCCN(C(=O)c2ccccc2)C1 (stereo not drawn) [Example 18, N-(n-Octyl) 1-Benzoyl-3-piperidinecarboxamide]
minimal effective concentration [1]: 0.01 µg/mL
MTC (Maximum Tolerable Concentration prior to causing cytotoxicity) [2]: 0.1 µg/mL

CCNC(=O)C1CCCN(C(=O)Cc2cccs2)C1 (stereo not drawn) [Example 20, N-Ethyl 1-(2-Thiopheneacetyl)-3-piperidinecarboxamide]
minimal effective concentration [1]: 0.1 µg/mL
MTC (Maximum Tolerable Concentration prior to causing cytotoxicity) [2]: 1 µg/mL

CCOC(=O)C1CCCN(C(=O)CCc2cccs2)C1 (stereo not drawn) [Example 23, Ethyl 1-(3-(2-Thienyl)propionyl)3-piperidinecarboxylate]
minimal effective concentration [1]: 0.1 µg/mL
MTC (Maximum Tolerable Concentration prior to causing cytotoxicity) [2]: 1 µg/mL

CN(C)CCNC(=O)C1CCCN(C(=O)Cc2cccs2)C1 (stereo not drawn) [Example 25, 2-Dimethylaminoethyl 1-(2-thiopheneacetyl)-3-piperidinecarboxamide]
minimal effective concentration [1]: 0.1 µg/mL
MTC (Maximum Tolerable Concentration prior to causing cytotoxicity) [2]: 1 µg/mL

CCOC(=O)CC1CCCN(C(=O)Cc2cccs2)C1 (stereo not drawn) [Example 27, Ethyl 1-(2-Thiopheneacetyl)-3-piperidinylacetate]
minimal effective concentration [1]: 1 µg/mL
MTC (Maximum Tolerable Concentration prior to causing cytotoxicity) [2]: 1 µg/mL

CCOC(=O)CC1CCCCN1C(=O)Cc1cccs1 (stereo not drawn) [Example 28, Ethyl 1-(2-Thiopheneacetyl)-2-piperidinylacetate]
MSC (Minimum Stimulatory Concentration) [1]: 0.1 µg/mL

CCOC(=O)C1CCC(C)N(C(=O)Cc2cccs2)C1 (stereo not drawn) [Example 33, Ethyl 1-(2-Thiopheneacetyl)-6-methyl-3-piperidinecarboxylate]
minimal effective concentration [1]: 0.1 µg/mL
MTC (Maximum Tolerable Concentration prior to causing cytotoxicity) [2]: 10 µg/mL

CCOC(=O)C1CCC[N+](C)(Cc2ccccc2)C1.[I-] (stereo not drawn) [Example 35, Ethyl 1-Benzyl-3-piperidinecarboxylate 1-Methiodide]
MSC (Minimum Stimulatory Concentration) [1]: 10 µg/mL

CCOC(=O)C1CCCN(C(=O)c2ccc(-c3ccccc3)cc2)C1 (stereo not drawn) [Example 36, Ethyl 1-(4-Phenylbenzoyl)-3-piperidinecarboxylate]
minimal effective concentration [1]: 0.1 µg/mL
MTC (Maximum Tolerable Concentration prior to causing cytotoxicity) [2]: 10 µg/mL

O=C(O)[C@H]1CCCN(C(=O)Cc2cccs2)C1 [Example 37, (S)-1-(2-Thiopheneacetyl)-3-piperidine Carboxylic Acid]
minimal effective concentration [1]: 10 µg/mL
MTC (Maximum Tolerable Concentration prior to causing cytotoxicity) [2]: 1000 µg/mL

COC(=O)C1CN(C(=O)OCc2ccccc2)CCC1=O (stereo not drawn) [Example 38, Methyl 1-Benzyloxycarbonyl-4-oxo-3-piperidinecarboxylate]
minimal effective concentration [1]: 1 µg/mL
MTC (Maximum Tolerable Concentration prior to causing cytotoxicity) [2]: 1 µg/mL

CCOC(=O)C1(C)CCCN(C(=O)c2ccccc2)C1 (stereo not drawn) [Example 39, Ethyl 1-Benzoyl-3-methyl-3-piperidinecarboxylate]
minimal effective concentration [1]: 1 µg/mL
MTC (Maximum Tolerable Concentration prior to causing cytotoxicity) [2]: 1 µg/mL

CNC(=O)N1C2CCC1C(C(=O)OC)C(=O)C2 (stereo not drawn) [Example 40, 8-[(Methylamino)carbonyl]-3-oxo-8-azabicyclo[3.2.1]octane-2-carboxylic Acid, Methyl Ester]
minimal effective concentration [1]: 0.01 µg/mL
MTC (Maximum Tolerable Concentration prior to causing cytotoxicity) [1]: 10 µg/mL

O=C(Cc1cccs1)N1CCCC(O)C1 (stereo not drawn) [Example 41, 1-(2-Thiopheneacetyl)-3-hydroxypiperidine]
minimal effective concentration [1]: 10 µg/mL
MTC (Maximum Tolerable Concentration prior to causing cytotoxicity) [2]: 100 µg/mL

N.O=C(O)[C@H]1CCCN(C(=O)Cc2cccs2)C1 [Example 42, (S)-1-(2-Thiopheneacetyl)-3-piperidinecarboxylic Acid Ammonium Salt]
minimal effective concentration [1]: 1 µg/mL
MTC (Maximum Tolerable Concentration prior to causing cytotoxicity) [1]: 10 µg/mL

CCOC(=O)C1CCCN(C(=O)CCc2ccccc2)C1 (stereo not drawn) [Example 43, Ethyl 1-(1-Phenylpropionyl)-3-piperidinecarboxylate]
MSC (Minimum Stimulatory Concentration) [1]: 1 µg/mL

CS(=O)(=O)OC1CCCN(C(=O)Cc2cccs2)C1 (stereo not drawn) [Example 44, 1-(2-Thiopheneacetyl)-3-(O-methanesulfonyl)piperidine]
MSC (Minimum Stimulatory Concentration) [1]: 1 µg/mL
MTC (Maximum Tolerable Concentration prior to causing cytotoxicity) [1]: 10 µg/mL

CCC(=O)OC1CCCN(C(=O)Cc2cccs2)C1 (stereo not drawn) [Example 46, 1-(2-Thiopheneacetyl)-3-(O-propionyl)piperidine]
MSC (Minimum Stimulatory Concentration) [1]: 1 µg/mL
MTC (Maximum Tolerable Concentration prior to causing cytotoxicity) [1]: 10 µg/mL

CCOC(=O)[C@H]1CCCN(C(=O)NCc2ccccc2)C1 [Example 48, (S)-Ethyl 1-(N-Benzylurea)-3-piperidinecarboxylate]
MSC (Minimum Stimulatory Concentration) [1]: 10 µg/mL

CCOC(=O)[C@H]1CCCN(C(=O)NC)C1 [Example 49, (S)-Ethyl 1-(N-Methylurea)-3-piperidinecarboxylate]
MSC (Minimum Stimulatory Concentration) [1]: 1 µg/mL
MTC (Maximum Tolerable Concentration prior to causing cytotoxicity) [1]: 10 µg/mL
